According to patent US10697020B2, “MicroRNA-129 as a biomarker for colorectal cancer” (THE RESEARCH FOUNDATION FOR THE STATE UNIVERSITY OF NEW YORK, priority 2013, dated 2020):

What was measured:
SW480 cells = assay: Cell proliferation assay (WST-1), SW480; assay type: cell-based, human; details: day 5
Protocol: (§1) HCT116, RKO and SW480 cells were plated in 6-well plates at 2×10^5, 1×10^5 and 1×10^5 per well, respectively. Twenty-four hours after plating, 100 nM of miR-129 precursor (Ambion, Carlsbad, Calif., USA) or siRNA against BCL2 (Dharmacon, Lafayette, Colo., USA) were transfected to the cells with oligofectamine (Invitrogen, Carlsbad, Calif., USA) in accordance with the manufacturer's protocol. Negative miRNA (Ambion) was also transfected as a negative control.
Twenty-four hours after transfection, cells were seeded in 96-well plates at a density of 2000 cells per well. The cell proliferation assay was performed on days 1, 3 and 5 by incubating 10 μl WST-1 (Roche Applied Science, Mannheim, Germany) in the culture medium for 1 h and reading the absorbance at 450 and 630 nm. The cell proliferation rate was calculated by […]. Experiments for the cell proliferation assay were performed at least three times.

HCT116 cells = assay: Cell cycle analysis (flow cytometry), HCT116; assay type: cell-based, human; details: 36 h after transfection
Protocol: as §1
Thirty-six hours after transfection, cells were harvested and resuspended at 0.5 to 1×10^6 cells/m in modified Krishan buffer supplemented with 0.02 mg/ml RNase H (Invitrogen) and 0.05 mg/ml propidium iodide (Sigma-Aldrich, St. Louis, Mo., USA) (See, Krishan A. The Journal of Cell Biology. 1975; 66(1):188-93). Stained cells were detected by flow cytometry and results were analyzed with Modfit LT™ software. The experiments for cell cycle analysis were performed at least three times.

[1] = set-up: species or system NOD/SCID mice; details: mouse, in vivo
Protocol: When solid and palpable tumors with an average volume of 100-150 mm^3 were formed (at day 14), mice were randomly separated into four groups such that each group was treated either with negative control miRNA, miR-129 alone, 5-FU alone or miR-129 and 5-FU together. The miRNAs were complexed with siPORTamine and injected intratumorally while 5-FU (50 μg g^−1) was injected systemically via the tail vein. All injections were provided in 3-day intervals for a total of three times before the tumors were collected at day 24. […] Importantly, despite the overexpression, the expression levels of miR-129 copy number remained within the physiological range (less than 20 copies/cell based on cycle threshold value at 30, which is equal to the expression of miR-129 in normal colon mucosa). Moreover, the control tumor xenografts had no miR-129 expression (cycle threshold value at 35). […]
The miR-129 specific primer and the internal control RNU44 gene were purchased from Ambion. cDNA synthesis was performed by the High Capacity cDNA Synthesis Kit (Applied Biosystems, CA, USA) with miRNA specific primers. […] Expression level of miR-129 was calculated by the ΔΔCT method based on the internal control RNU44, normalized to the control group and plotted as relative quantification (RQ).

TS = assay: Western immunoblot analysis of TS protein in HCT116 cells; assay type: cell-based, human; details: HCT116 cells with ectopic expression of miR-129
Protocol: as §1
Forty-eight hours after transfection, cells were lysed with RIPA buffer (Sigma-Aldrich), and Western immunoblotting was performed using standard procedures. The primary antibodies used for the analysis were mouse anti-human BCL2 antibody (1:200; Thermo Fisher Scientific, Fremont, Calif., USA), rabbit anti-human cleaved caspase-3 antibody (1:200; Cell Signaling Technology, Beverly, Mass., USA), rabbit anti-human cleaved caspase-9 antibody (1:200; Cell Signaling Technology), mouse anti-human E2F3 antibody (1:5000; Millipore, Billerica, Mass., USA), mouse anti-human TS antibody (1:400; Millipore), mouse anti-human GAPDH antibody (1:1000, Santa Cruz Biotechnology, Santa Cruz, Calif., USA) or mouse anti-human α-tubulin antibody (1:1000; Millipore). […] HRP activity was detected with SuperSignal West Pico Chemiluminescent Substrate (Thermo Fisher Scientific) and visualized in an UVP Bioimaging system.

[2] = system: 84 genes involved in cell death pathways; assay: Cell Death PathwayFinder PCR Array (real time qRT-PCR); assay type: cell-based, human; details: miR-129 transfected vs negative miRNA transfected cells
Text: RNAs were extracted from cells transfected with either precursor miR-129 or negative miRNA using TRIzol reagent (Invitrogen) in accordance with the manufacturer's protocol. RNAs were transcribed to first-strand cDNA using the RT^2 First Strand Kit (SABiosciences, Qiagen, Venlo, Netherlands). Next, the cDNA is mixed with RT^2 SYBR Green Mastermix (SABiosciences), and this mixture is aliquoted into the wells of the Cell Death PathwayFinder PCR Array (PAHS-212Z). Applied Biosytems 7500 Real-Time PCR machine was used for qRT-PCR, and relative expression values were determined using the ΔΔCT method.

[3] = system: Colon cancer stem cells, i.e., CD133^+HICD44^+HI cells; assay: Colon cancer stem cell tumor xenograft in NOD/SCID mice; assay type: in vivo
Protocol: FIG. 3. miR-129 suppresses colorectal cancer cell growth and induces cell cycle arrest. (a) HCT116, […] and SW480 cells were transfected with either miR-129 or negative miRNA, and cell numbers were measured with WST-1 assay at days 1, 3 and 5. Cell cycle analysis was performed to determine the impact of miR-129. The representative flow cytometry pattern was shown in (b) and the G1/S and G2/S ratios were shown in (c) (n=3). (d) Colon cancer stem cells, i.e., CD133^+HICD44^+HI cells were subcutaneously injected into NOD/SCID mice (1×10^4 cells). Mice were treated with either (top left) control lentiviral GFP vector and lentiviral miR-129 expressing construct (n=5) or (top right) mice were injected with negative miRNA (n=5) or miR-129 precursor (n=5) at 1.25 nmol per injection. Tumor sizes were then analyzed 7 weeks after initial treatment (lentiviral or injection). […] Scale bar: 1 cm. (bottom left) Quantitative analysis of colon cancer stem cells in tumor xenografts transfected with lentiviral miR-129 or control constructs reveal a significant reduction in tumor size. (bottom right) Quantitative analysis of colon cancer stem cells in tumor xenografts transfected with control and miR-129 precursor RNA.

miR-129: nucleic acid having a sequence of CUUUUUGCGGUCUGGGCUUGC (SEQ ID NO. 1); miR-129 precursor from Ambion used (chemistry not given here; listed as Homo sapiens)
cell proliferation reduced compared to negative controls (SW480 cells): 44.7%
cell cycle arrest (G1/S and G2/S ratios) (HCT116 cells): reached significance at G2 checkpoint
miR-129 copy number in injected tumors [1]: less than 20 copies/cell
TS protein expression (TS): suppressed the protein expression of TS
Fold change (miR-129/neg) ([2]; gene APAF1): 2.44
Fold change (miR-129/neg) ([2]; gene BAX): 27.77
Fold change (miR-129/neg) ([2]; gene BCL2A1): 0.04
Fold change (miR-129/neg) ([2]; gene BIRC3): 0.28
Fold change (miR-129/neg) ([2]; gene CASP2): 7.68
Fold change (miR-129/neg) ([2]; gene CASP3): 1.27
Fold change (miR-129/neg) ([2]; gene CASP7): 4.75
Fold change (miR-129/neg) ([2]; gene CASP9): 2.53
Fold change (miR-129/neg) ([2]; gene MCL1): 3.81
Fold change (miR-129/neg) ([2]; gene PARP2): 0.47
tumor size ([3]; delivery via lentiviral miR-129 expressing construct vs control lentiviral GFP vector, 7 weeks): reduces tumor size significantly
tumor size ([3]; injection of miR-129 precursor at 1.25 nmol per injection vs negative miRNA, 7 weeks after initial treatment): reduces tumor size significantly
